68 molecules from the PolyMetriX glass transition set can be followed below.

Counter-ions that a name gives are not always drawn. ± gives the standard deviation of the reports.

`*/C=C/c1cc(OC)c(/C=C/c2ccc(/C=C(\Oc3ccccc3)c3ccc(/C(=C/c4ccc(*)cc4)c4ccc(Oc5ccccc5)cc4)cc3)cc2)cc1OC` (repeat unit): the glass transition temperature was found to be 175.00 °C. In the case of `*/C=C/c1cc(OCC(CC)CCCC)c(*)cc1OC` (repeat unit), the glass transition temperature is 79.00 °C. As to `*/C=C/c1cc(OCC2CC3CC2C2CCCC32)c(*)cc1OC` (repeat unit), the glass transition temperature worked out at 174.00 °C. To `*/C=C/c1cc(OCCC(C)CCCC(C)C)c(*)cc1OC` (repeat unit) belongs 54.50 °C. `*/C=C/c1cc(OCCCCCCCC)c(*)cc1OC` (repeat unit) displayed a glass transition temperature of 58.00 °C. With `*/C=C/c1ccc(/C=C/[Si](C)(CCC(F)(F)F)c2ccc([Si](*)(C)CCC(F)(F)F)cc2)cc1` (repeat unit), the glass transition temperature is 55.70 °C. `*CCCCCCCCCCOc1c(OC)cc(/C=C/c2ccc(/C=C/c3cc(OC)c(O*)c(OC)c3)cc2)cc1OC` (repeat unit) returned a glass transition temperature of 68.50 °C. As for `*CCCCCCCCOc1c(OC)cc(/C=C/c2cc(CCCCCC)c(/C=C/c3cc(OC)c(O*)c(OC)c3)cc2CCCCCC)cc1OC` (repeat unit), the glass transition temperature came to 21.00 °C. `*CCCCOCCCCOCCCCOC(=O)c1ccc(/N=C/c2cc(OCCCCCC)c(/C=C/c3cc(OCCCCCC)c(/C=C/c4cc(OCCCCCC)c(/C=N/c5ccc(C(=O)O*)cc5)cc4OCCCCCC)cc3OCCCCCC)cc2OCCCCCC)cc1` (repeat unit) had a glass transition temperature of 14.30 °C. In turn, `*CCOCCOCCOc1ccc(/C=C(\C)c2ccc(O*)cc2)cc1` (repeat unit) returned a glass transition temperature of 16.00 °C. In the case of `*CC(*)C=C` (repeat unit) [Poly(1,2-butadiene)], the glass transition temperature is -6.08 ± 1.3 °C. `*CC(*)(C)C(=O)OCC(F)(F)F` (repeat unit) [Poly(2,2,2-trifluoroethyl methacrylate)]: the glass transition temperature was 74.42 ± 0.8 °C. For the molecule `*CC(*)(C)C(=O)OCC(F)(F)C(F)F` (repeat unit) [Poly(2,2,3,3-tetrafluoropropyl methacrylate)], the glass transition temperature worked out at 75.42 ± 6.5 °C. Turning to `*CC(*)c1cc(C)ccc1C` (repeat unit) [Poly(2,5-dimethyl styrene) ], the glass transition temperature is 143 ± 0.6 °C. Molecule `*CC(*)(C)C(=O)OCCCl` (repeat unit) [Poly(2-chloroethyl methacrylate) ] yielded a glass transition temperature of 90 ± 16 °C. Take `*CC(*)C(=O)OCC(CC)CCCC` (repeat unit) [Poly(2-ethylhexyl acrylate)]: the glass transition temperature was -57.08 ± 7 °C. As to `*CC(*)C(F)(F)F` (repeat unit) [Poly(3,3,3-trifluoropropylene) ], the glass transition temperature amounted to 27 ± 2.3 °C. Molecule `*CC(*)c1ccc(Cl)c(F)c1` (repeat unit) [Poly(3-fluoro-4-chloro styrene) ] returned a glass transition temperature of 122 ± 0.6 °C. Molecule `*Oc1ccc(Sc2ccc(OC(*)=O)cc2)cc1` (repeat unit) [Poly(4,4'-thiodiphenylene carbonate)] showed a glass transition temperature of 113.4 ± 2.1 °C. To `*CC(*)c1ccc(Br)cc1` (repeat unit) [Poly(4-bromostyrene)] belongs 140.4 ± 5.4 °C; to `*CC(*)c1ccc(Cl)cc1` (repeat unit) [Poly(4-chlorostyrene)], 119.92 ± 5.3 °C. Consider `*CCCCCC(=O)N*` (repeat unit) [Poly(6-aminohexanoic acid)], for which the glass transition temperature is 55.73 ± 5.6 °C. For the molecule `*CC(*)C(=O)NC(C)C` (repeat unit) [Poly(N-isopropyl acrylamide)], the glass transition temperature is 85.2 ± 56 °C. `*CC(*)N1CCCC1=O` (repeat unit) [Poly(N-vinyl pyrrolidone)] returned a glass transition temperature of 145 ± 7.9 °C. `*CC(*)C#N` (repeat unit) [Poly(acrylonitrile)] came in with a glass transition temperature of 110 ± 12 °C. Consider `*Oc1ccc(C(C)(C)c2ccc(OC(*)=O)cc2)cc1` (repeat unit) [Poly(bisphenol A carbonate)], for which the glass transition temperature stood at 152.42 ± 6.3 °C.

Molecule `*CCCCCCCCCCOC(=O)CCCCC(=O)O*` (repeat unit) [Poly(decamethylene adipate) ] returned a glass transition temperature of -57 ± 6.6 °C. Molecule `*O[Si](*)(C)C` (repeat unit) [Poly(dimethylsiloxane)] came in with a glass transition temperature of -124 ± 2 °C. For `*CC(*)C(=O)OCC` (repeat unit) [Poly(ethyl acrylate) ], the glass transition temperature is -22 ± 2.1 °C.

`*CCOC(=O)CCCCC(=O)O*` (repeat unit) [Poly(ethylene adipate)] registered a glass transition temperature of -48.83 ± 8 °C. Take `*CCOC(=O)c1ccccc1C(=O)O*` (repeat unit) [Poly(ethylene phthalate)]: the glass transition temperature came to 60.17 ± 51 °C. Regarding `*CCOC(=O)CCCCCCCCC(=O)O*` (repeat unit) [Poly(ethylene sebacate)], the glass transition temperature is -29.6 ± 3.9 °C. `*CCS*` (repeat unit) [Poly(ethylene sulfide)] displayed a glass transition temperature of -25.83 ± 34 °C.

Take `*CC(*)CCCCCC` (repeat unit) [Poly(hexylethylene)]: the glass transition temperature was -54.58 ± 0.8 °C. The molecule `*CC(*)(C)C(=O)OC(C)C` (repeat unit) [Poly(isopropyl methacrylate)] gave a glass transition temperature of 83.92 ± 1.5 °C. In turn, `*CC(*)C(C)C` (repeat unit) [Poly(isopropylethylene)] gave a glass transition temperature of 49 ± 18 °C. `*CC(*)c1cccc(C)c1` (repeat unit) [Poly(m-methyl styrene) ] came in with a glass transition temperature of 95 ± 11 °C. To `*CC(*)(C)C#N` (repeat unit) [Poly(methacrylonitrile)] belongs 101.67 ± 19 °C; to `*CC(*)C(=O)OCCC` (repeat unit) [Poly(n-propyl acrylate) ], -41.33 ± 4 °C. To `*CC(*)c1ccccn1` (repeat unit) [Poly(o-vinyl pyridine) ] belongs 104 ± 1.1 °C; to `*Oc1ccc(C(*)=O)cc1` (repeat unit) [Poly(p-hydroxybenzoate)], 147 ± 8.5 °C; to `*CC(*)c1ccc(COC)cc1` (repeat unit) [Poly(p-methoxymethyl styrene)], 77 ± 0.6 °C. Regarding `*CC(*)c1ccc(OCCCC)cc1` (repeat unit) [Poly(p-n-butoxy styrene) ], the glass transition temperature came to 47 ± 3.3 °C. `*CC(*)c1ccc(CCCC)cc1` (repeat unit) [Poly(p-n-butyl styrene) ] yielded a glass transition temperature of 6 ± 0.6 °C. As for `*CC(*)c1ccc(OCCC)cc1` (repeat unit) [Poly(p-n-propoxy styrene)], the glass transition temperature was determined as 70 ± 3.5 °C.

In turn, `*CC(*)c1ccc(COCCC)cc1` (repeat unit) [Poly(p-n-propoxymethyl styrene) ] came in with a glass transition temperature of 22 ± 1.2 °C. Turning to `*CC(*)c1ccc(-c2ccccc2)cc1` (repeat unit) [Poly(p-phenyl styrene) ], the glass transition temperature is 138 ± 14 °C.

As to `*/C=C/c1ccc(*)cc1` (repeat unit) [Poly(p-phenylenevinylene)s], the glass transition temperature amounted to 137.42 ± 150 °C. Molecule `*CC(*)c1ccncc1` (repeat unit) [Poly(p-vinyl pyridine) ] came in with a glass transition temperature of 142 ± 5.4 °C. As for `*CC(*)CCCCC` (repeat unit) [Poly(pentylethylene)], the glass transition temperature is -44.33 ± 1.7 °C.

The molecule `*CCC(=O)N*` (repeat unit) [Poly(propano-3-lactam)] yielded a glass transition temperature of 128.17 ± 24 °C.

`*CC(C)S*` (repeat unit) [Poly(propylene sulfide) ] came in with a glass transition temperature of -47 ± 2.7 °C. On to `*CC(*)C` (repeat unit) [Poly(propylene)], for which the glass transition temperature was -24.6 ± 21 °C. `*CC(*)C(=O)OC(C)CC` (repeat unit) [Poly(sec-butyl acrylate)] had a glass transition temperature of -20 ± 1.8 °C. `*CC(*)C(=O)OC(C)(C)C` (repeat unit) [Poly(t-butyl acrylate)]: the glass transition temperature was found to be 41 ± 0.9 °C. The same measure for `*CC(*)(C)C(=O)OC(C)(C)C` (repeat unit) [Poly(t-butyl methacrylate) ]: 107 ± 0.6 °C; for `*CC(*)C(=O)OCCCC` (repeat unit) [Poly(tert-butyl acrylate)]: -51.58 ± 45 °C. For the molecule `*C(*)(F)F` (repeat unit) [Poly(tetrafluoroethylene)], the glass transition temperature worked out at 118.42 ± 2.2 °C. The same measure for `*CC1CC(*)OC(CCC)O1` (repeat unit) [Poly(vinyl butyral)]: 54.42 ± 9.2 °C; for `*CC1CC(*)OCO1` (repeat unit) [Poly(vinyl formal) ]: 104 ± 21 °C; for `*CC(*)OC=O` (repeat unit) [Poly(vinyl formate)]: 32.4 ± 3.6 °C. Molecule `*CC(*)OC(=O)CC` (repeat unit) [Poly(vinyl propionate) ] had a glass transition temperature of 10 ± 2 °C. On to `*Oc1ccc(C(CCC)c2ccc(OC(*)=O)cc2)cc1` (repeat unit) [Poly[1,1-butane bis(4-phenyl)carbonate] ], for which the glass transition temperature came out at 123 ± 0.6 °C. The same measure for `*CC(*)C(F)(F)C(F)(F)C(F)(F)F` (repeat unit) [Poly[(heptafluoropropyl)ethylene] ]: 58 ± 0.6 °C. The molecule `*Sc1ccc(*)cc1` (repeat unit) [Poly[thio(p-phenylene)] ] had a glass transition temperature of 87 ± 2.2 °C.

`*CC/C=C(/*)C` (repeat unit) [Polyisoprene (cis)] returned a glass transition temperature of -67.00 ± 7 °C. In turn, `*CCN*` (repeat unit) [poly(2-oxazoline)s] displayed a glass transition temperature of -35.77 ± 17 °C. For `*CC(COCC=C)O*` (repeat unit) [poly(allyl glycidyl ether)], the glass transition temperature was -35.33 ± 57 °C.
